Results published in ChEMBL document CHEMBL1201862, “PubChem BioAssay data set” (2004).
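How tested: cells in 96-well plates exposed to compound for 48 hours at five concentrations. GI50 = concentration required for 50% inhibition of growth.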 The source made the active and inactive calls. No stated cut-off is given here; in the data, active = GI50 up to about 1.1 µM and inactive = higher. Square brackets hold non-standard residues; d marks the D form. Peptide text beside a SMILES is read from it. * marks the point of attachment. Bn2Val = CC(C)[C@@H](C(=O)*)N(Cc1ccccc1)Cc1ccccc1; NH(3,4-diMeO-benzyl) = COc1ccc(CN*)cc1OC; NMeV = CN[C@H](C(=O)O)C(C)C; dNMeA = CN[C@H](C)C(=O)O

Legend:
Test in all cases: inhibition of tumour cell growth, NCI panel, 48 h
SF-539 = test system: SF-539
MDA-MB-435 = test system: MDA-MB-435
M14 = test system: M14
PC-3 = test system: PC-3
HCT-116 = test system: HCT-116
HOP-62 = test system: HOP-62
T47D = test system: T47D
Hs-578T = test system: Hs-578T
A549 = test system: A549
DU-145 = test system: DU-145
MCF7 = test system: MCF7
MDA-N = test system: MDA-N
NCI/ADR-RES = test system: NCI/ADR-RES
RXF 393 = test system: RXF 393
K562 = test system: K562
U-251 = test system: U-251
SF-295 = test system: SF-295
SK-MEL-5 = test system: SK-MEL-5
NCI-H522 = test system: NCI-H522
HL-60 = test system: HL-60
SNB-19 = test system: SNB-19
SK-MEL-2 = test system: SK-MEL-2
HCC 2998 = test system: HCC 2998
CCRF-CEM = test system: CCRF-CEM
SW-620 = test system: SW-620
ACHN = test system: ACHN
UACC-62 = test system: UACC-62
IGROV-1 = test system: IGROV-1
BT-549 = test system: BT-549
SK-OV-3 = test system: SK-OV-3
MOLT-4 = test system: MOLT-4
A498 = test system: A498
HCT-15 = test system: HCT-15
Malme-3M = test system: Malme-3M
CAKI-1 = test system: CAKI-1
OVCAR-5 = test system: OVCAR-5
SNB-75 = test system: SNB-75
NCI-H23 = test system: NCI-H23
UO-31 = test system: UO-31
OVCAR-8 = test system: OVCAR-8
RPMI-8226 = test system: RPMI-8226
NCI-H226 = test system: NCI-H226
TK-10 = test system: TK-10
COLO 205 = test system: COLO 205
SF-268 = test system: SF-268
HOP-92 = test system: HOP-92
NCI-H460 = test system: NCI-H460
SK-MEL-28 = test system: SK-MEL-28
HT-29 = test system: HT-29
UACC-257 = test system: UACC-257
KM12 = test system: KM12
LOX IMVI = test system: LOX IMVI
SN12C = test system: SN12C
OVCAR-4 = test system: OVCAR-4
MDA-MB-231 = test system: MDA-MB-231
786-0 = test system: 786-0
OVCAR-3 = test system: OVCAR-3
EKVX = test system: EKVX

C[C@H](C(=O)N1C(=O)O[C@@H](c2ccccc2)[C@H]1C)[C@H](c1ccccc1)N(Cc1ccccc1)OC(=O)c1ccccc1
GI50 (SF-539): 71.3 µM (inactive) | GI50 (MDA-MB-435): 49.4 µM (inactive) | GI50 (M14): 24.3 µM (inactive) | GI50 (PC-3): 53.5 µM (inactive) | GI50 (HCT-116): 34.1 µM (inactive) | GI50 (HOP-62): 18.9 µM (inactive) | GI50 (T47D): 15.8 µM (inactive) | GI50 (Hs-578T): 84.5 µM (inactive) | GI50 (A549): 32.9 µM (inactive) | GI50 (DU-145): 66.1 µM (inactive) | GI50 (MCF7): 30.1 µM (inactive) | GI50 (MDA-N): 48.9 µM (inactive) | GI50 (NCI/ADR-RES): 30.3 µM (inactive) | GI50 (RXF 393): 73.8 µM (inactive) | GI50 (K562): 31.6 µM (inactive) | GI50 (U-251): 31.9 µM (inactive) | GI50 (SF-295): 21.6 µM (inactive) | GI50 (SK-MEL-5): 21 µM (inactive) | GI50 (NCI-H522): 29.1 µM (inactive) | GI50 (HL-60): 29 µM (inactive) | GI50 (SNB-19): 35 µM (inactive) | GI50 (SK-MEL-2): 22.1 µM (inactive) | GI50 (HCC 2998): 21.6 µM (inactive) | GI50 (CCRF-CEM): 37.2 µM (inactive) | GI50 (SW-620): 70.3 µM (inactive) | GI50 (ACHN): 31.8 µM (inactive) | GI50 (UACC-62): 28.6 µM (inactive) | GI50 (IGROV-1): 29.2 µM (inactive) | GI50 (BT-549): 38.3 µM (inactive) | GI50 (SK-OV-3): 38.8 µM (inactive) | GI50 (MOLT-4): 22.1 µM (inactive) | GI50 (A498): > 100 µM (inactive) | GI50 (HCT-15): 29.6 µM | GI50 (Malme-3M): > 100 µM (inactive) | GI50 (CAKI-1): 77.1 µM (inactive) | GI50 (OVCAR-5): 68.1 µM (inactive) | GI50 (SNB-75): 29.9 µM (inactive) | GI50 (NCI-H23): 65.3 µM (inactive) | GI50 (UO-31): 34.8 µM (inactive) | GI50 (OVCAR-8): 37.5 µM (inactive) | GI50 (RPMI-8226): 21.7 µM (inactive) | GI50 (NCI-H226): 38.4 µM (inactive) | GI50 (TK-10): 90.6 µM (inactive) | GI50 (COLO 205): 38.5 µM (inactive) | GI50 (SF-268): 33.8 µM (inactive) | GI50 (HOP-92): 24.4 µM (inactive) | GI50 (NCI-H460): 30.4 µM (inactive) | GI50 (SK-MEL-28): > 100 µM (inactive) | GI50 (HT-29): 26.4 µM (inactive) | GI50 (UACC-257): 20.9 µM (inactive) | GI50 (KM12): 49.3 µM (inactive) | GI50 (LOX IMVI): 45.3 µM (inactive) | GI50 (SN12C): 80.7 µM (inactive) | GI50 (OVCAR-4): 21 µM (inactive) | GI50 (MDA-MB-231): 94 µM (inactive) | GI50 (786-0): 57.4 µM (inactive)

COc1ccc(CNC(=O)[C@@H](C)N(C)C(=O)[C@@H]2CCCN2C(=O)[C@H](C(C)C)N(C)C(=O)[C@@H](NC(=O)[C@H](C(C)C)N(Cc2ccccc2)Cc2ccccc2)C(C)C)cc1OC (Bn2Val-V[NMeV]P[dNMeA]-{NH(3,4-diMeO-benzyl)})
GI50 (OVCAR-3): 5.9 µM (inactive) | GI50 (SF-539): 7.89 µM (inactive) | GI50 (MDA-MB-435): 8.63 µM (inactive) | GI50 (M14): 6.92 µM (inactive) | GI50 (PC-3): 3.61 µM (inactive) | GI50 (EKVX): 6.24 µM (inactive) | GI50 (HCT-116): 6.76 µM (inactive) | GI50 (HOP-62): 8 µM (inactive) | GI50 (T47D): 7.43 µM (inactive) | GI50 (Hs-578T): 1.36 µM (inactive) | GI50 (A549): 5.85 µM (inactive) | GI50 (DU-145): 14 µM (inactive) | GI50 (MCF7): 4.33 µM (inactive) | GI50 (MDA-N): 9.06 µM (inactive) | GI50 (NCI/ADR-RES): 7.19 µM (inactive) | GI50 (RXF 393): 5.61 µM (inactive) | GI50 (K562): 10.8 µM (inactive) | GI50 (U-251): 7.6 µM (inactive) | GI50 (SF-295): 6.28 µM (inactive) | GI50 (SK-MEL-5): 5.87 µM (inactive) | GI50 (NCI-H522): 3.19 µM (inactive) | GI50 (HL-60): 1.8 µM (inactive) | GI50 (SNB-19): 7.48 µM (inactive) | GI50 (SK-MEL-2): 7.4 µM (inactive) | GI50 (HCC 2998): 7.1 µM (inactive) | GI50 (CCRF-CEM): 2.23 µM (inactive) | GI50 (SW-620): 10.1 µM (inactive) | GI50 (ACHN): 6.97 µM (inactive) | GI50 (UACC-62): 7.01 µM (inactive) | GI50 (IGROV-1): 5.14 µM (inactive) | GI50 (BT-549): 7.69 µM (inactive) | GI50 (SK-OV-3): 12.8 µM (inactive) | GI50 (MOLT-4): 4.05 µM (inactive) | GI50 (A498): 11.5 µM (inactive) | GI50 (HCT-15): 7.18 µM | GI50 (Malme-3M): 8.67 µM (inactive) | GI50 (CAKI-1): 11.4 µM (inactive) | GI50 (OVCAR-5): 8.2 µM (inactive) | GI50 (SNB-75): 6.43 µM (inactive) | GI50 (NCI-H23): 10.5 µM (inactive) | GI50 (UO-31): > 100 µM (inactive) | GI50 (OVCAR-8): 14.1 µM (inactive) | GI50 (RPMI-8226): 2.66 µM (inactive) | GI50 (NCI-H226): 6.58 µM (inactive) | GI50 (TK-10): 11.7 µM (inactive) | GI50 (COLO 205): 6.55 µM (inactive) | GI50 (SF-268): 6.41 µM (inactive) | GI50 (HOP-92): 7.4 µM (inactive) | GI50 (NCI-H460): 9.73 µM (inactive) | GI50 (SK-MEL-28): 8.34 µM (inactive) | GI50 (HT-29): 5.4 µM (inactive) | GI50 (UACC-257): 7.43 µM (inactive) | GI50 (KM12): 10.4 µM (inactive) | GI50 (LOX IMVI): 7.76 µM (inactive) | GI50 (SN12C): 8.13 µM (inactive) | GI50 (OVCAR-4): 12.6 µM (inactive) | GI50 (MDA-MB-231): 8.15 µM (inactive) | GI50 (786-0): 8.97 µM (inactive)
